# Calls of active or inactive are those of the source. The rule behind the calls is not given here.
# How the values were obtained:
# [1] = Plasma concentration in mouse xenografted with human H838 cells at 10 mg/kg, iv single dose measured after 168 hrs by LC-MS/MS analysis; assay type: ADME, organism-based, NCI-H838; conditions: in vivo
# [2] = Clearance in mouse at 1 mg/kg, iv; assay type: ADME, organism-based; conditions: in vivo
# [3] = Plasma concentration in mouse xenografted with human MV4-11 cells at 30 mg/kg, iv single dose measured after 24 hrs by LC-MS/MS analysis; assay type: ADME, organism-based
# NCI-H838 [4] = test: In vivo anti-tumor activity against human NCI-H838 cells xenografted in SCID mouse assessed as assessed as inhibition of tumor growth at 10 mg/kg, iv measured after 3 weeks relative to control; assay type: functional; conditions: NCI-H838, 504 h, read-out: TGI
# [5] = Antiproliferative activity against human SMARCA4-deficient NCI-H838 cells assessed as inhibition of cell growth measured after 7 days by WST-8 assay; assay type: functional; conditions: NCI-H838, 168 h, time 7 day
# [6] = Metabolic stability in rat liver microsomes assessed as half life; assay type: ADME, Microsome
# [7] = Half life in mouse at 1 mg/kg, iv; assay type: ADME, organism-based; conditions: in vivo
# [8] = Antiproliferative activity against human SMARCA4-deficient NCI-H838 cells assessed as maximal inhibition of cell growth measured after 7 days by WST-8 assay relative to control; assay type: functional; conditions: time 7 day
# [9] = Metabolic stability in human liver microsomes assessed as half life; assay type: ADME, Microsome
# [10] = Drug uptake in tumor of human NCI-H838 cells xenografted SCID mouse model at 10 mg/kg, iv measured after 96 hrs by LC-MS/MS analysis; assay type: ADME, organism-based, Neoplasm; conditions: read-out: Drug uptake
# [11] = Cmax in mouse at 1 mg/kg, iv; assay type: ADME, organism-based; conditions: in vivo
# [12] = Clearance in rat at 1 mg/kg, iv; assay type: ADME, organism-based; conditions: in vivo
# [13] = Antiproliferative activity against human SMARCA4-deficient NCI-H1693 cells assessed as inhibition of cell growth measured after 7 days by WST-8 assay; assay type: functional; conditions: NCI-H1693, 168 h, time 7 day
# [14] = Plasma concentration in SCID mouse xenografted with human NCI-H838 cells at 10 mg/kg, iv measured after 48 hrs by LC-MS/MS analysis; assay type: ADME, organism-based
# [15] = Drug uptake in tumor of human NCI-H838 cells xenografted SCID mouse model at 10 mg/kg, iv measured after 168 hrs by LC-MS/MS analysis; assay type: ADME, organism-based, Neoplasm; conditions: read-out: Drug uptake
# SK-MEL-28 [16] = test: Antiproliferative activity against human SMARCA4-wild type SK-MEL-28 cells assessed as maximal inhibition of cell growth measured after 7 days by WST-8 assay relative to control; assay type: functional; conditions: time 7 day
# [17] = Antiproliferative activity against human SMARCA4-deficient NCI-H1568 cells assessed as inhibition of cell growth measured after 7 days by WST-8 assay; assay type: functional; conditions: NCI-H1568, 168 h, time 7 day
# [18] = Antiproliferative activity against human SMARCA4-deficient NCI-H1693 cells assessed as maximal inhibition of cell growth measured after 7 days by WST-8 assay relative to control; assay type: functional; conditions: time 7 day
# SK-MEL-5 [19] = test: Antiproliferative activity against human SMARCA4-deficient SK-MEL-5 cells assessed as maximal inhibition of cell growth measured after 7 days by WST-8 assay relative to control; assay type: functional; conditions: time 7 day
# SK-MEL-28 [20] = test: Antiproliferative activity against human SMARCA4-wild type SK-MEL-28 cells assessed as inhibition of cell growth measured after 7 days by WST-8 assay; assay type: functional; conditions: SK-MEL-28, 168 h, time 7 day
# NCI-H838 [21] = test: In vivo anti-tumor activity against human NCI-H838 cells xenografted in SCID mouse assessed as assessed as inhibition of tumor growth at 30 mg/kg, iv treated for 3 weeks measured after treatment stop; assay type: functional, organism-based
# [22] = Volume of distribution of steady state in rat at 1 mg/kg, iv; assay type: ADME, organism-based; conditions: in vivo, read-out: Vdss
# [23] = AUC (0 to 24hrs) in rat at 1 mg/kg, iv; assay type: ADME, organism-based; conditions: in vivo
# [24] = Antiproliferative activity against human SMARCA4-deficient NCI-H1568 cells assessed as maximal inhibition of cell growth measured after 7 days by WST-8 assay relative to control; assay type: functional; conditions: time 7 day
# [25] = AUC (0 to 24hrs) in mouse at 1 mg/kg, iv; assay type: ADME, organism-based; conditions: in vivo
# [26] = Toxicity in SCID mouse assessed as body weight loss at 50 mg/kg, iv twice a week; assay type: organism-based; conditions: in vivo
# [27] = Antiproliferative activity against human SMARCA4-deficient NCI-H1944 cells assessed as maximal inhibition of cell growth measured after 7 days by WST-8 assay relative to control; assay type: functional; conditions: time 7 day
# Cytochrome P450 3A4 = Cytochrome P450 3A4 (Homo sapiens, UniProt P08684); test: Inhibition of CYP3A4 (unknown origin) using midazolam as substrate; assay type: ADME
# [28] = Toxicity in SCID mouse xenografted with human H838 cells assessed as body weight loss at 30 mg/kg, iv measured after 3 weeks; assay type: organism-based; conditions: in vivo, 504 h
# NCI-H838 [29] = test: In vivo anti-tumor activity against human NCI-H838 cells xenografted in SCID mouse assessed as assessed as inhibition of tumor growth at 10 mg/kg, iv treated for 3 weeks measured after treatment stop; assay type: functional, organism-based
# [30] = Drug uptake in tumor of mouse xenografted with human H838 cells at 10 mg/kg, iv single dose measured after 6 hrs by LC-MS/MS analysis; assay type: ADME, organism-based, Neoplasm, NCI-H838; conditions: read-out: Drug uptake
# SK-MEL-5 [31] = test: Antiproliferative activity against human SMARCA4-deficient SK-MEL-5 cells assessed as inhibition of cell growth measured after 7 days by WST-8 assay; assay type: functional; conditions: SK-MEL-5, 168 h, time 7 day
# NCI-H838 [32] = test: In vivo anti-tumor activity against human NCI-H838 cells xenografted in SCID mouse assessed as assessed as inhibition of tumor growth at 30 mg/kg, iv measured after 3 weeks relative to control; assay type: functional; conditions: NCI-H838, 504 h, read-out: TGI
# [33] = Half life in rat at 1 mg/kg, iv; assay type: ADME, organism-based; conditions: in vivo
# [34] = Plasma concentration in SCID mouse xenografted with human NCI-H838 cells at 10 mg/kg, iv measured after 168 hrs by LC-MS/MS analysis; assay type: ADME, organism-based; conditions: in vivo, iv, 10 mg/kg, 168 h
# [35] = Drug uptake in tumor of human NCI-H838 cells xenografted SCID mouse model at 10 mg/kg, iv measured after 48 hrs by LC-MS/MS analysis; assay type: ADME, organism-based, Neoplasm; conditions: read-out: Drug uptake
# [36] = molecular target: SWI/SNF-related matrix-associated actin-dependent regulator of chromatin subfamily A member 2 (Homo sapiens, UniProt P51531); test: Inhibition of human SMARCA2 by TR-FRET assay
# [37] = Drug uptake in tumor of mouse xenografted with human H838 cells at 10 mg/kg, iv single dose measured after 48 hrs by LC-MS/MS analysis; assay type: ADME, organism-based, Neoplasm, NCI-H838; conditions: read-out: Drug uptake
# [38] = Plasma concentration in SCID mouse xenografted with human NCI-H838 cells at 10 mg/kg, iv measured after 24 hrs by LC-MS/MS analysis; assay type: ADME, organism-based
# [39] = Antiproliferative activity against human […] NCI-H1975 cells assessed as maximal inhibition of cell growth measured after 7 days by WST-8 assay relative to control; assay type: functional; conditions: time 7 day
# [40] = Plasma stability in mouse plasma assessed as half life; assay type: ADME, cell-free
# Chain of Cytochrome P450 3A4 (P08684 whole entry): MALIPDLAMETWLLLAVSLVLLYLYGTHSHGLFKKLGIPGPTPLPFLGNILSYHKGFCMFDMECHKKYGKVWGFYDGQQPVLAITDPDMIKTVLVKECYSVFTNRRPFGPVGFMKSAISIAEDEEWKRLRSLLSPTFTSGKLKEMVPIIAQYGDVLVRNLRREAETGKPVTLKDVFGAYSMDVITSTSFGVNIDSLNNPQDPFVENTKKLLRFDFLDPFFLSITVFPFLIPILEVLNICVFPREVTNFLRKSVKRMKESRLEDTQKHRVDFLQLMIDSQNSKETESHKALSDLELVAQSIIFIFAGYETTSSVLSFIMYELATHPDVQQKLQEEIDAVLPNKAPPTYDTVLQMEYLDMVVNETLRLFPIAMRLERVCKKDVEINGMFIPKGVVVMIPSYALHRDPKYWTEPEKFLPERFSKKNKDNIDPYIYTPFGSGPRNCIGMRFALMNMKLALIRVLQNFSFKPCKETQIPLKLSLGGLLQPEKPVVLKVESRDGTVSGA
# Chain of SWI/SNF-related matrix-associated actin-dependent regulator of chromatin subfamily A member 2 (P51531 whole entry): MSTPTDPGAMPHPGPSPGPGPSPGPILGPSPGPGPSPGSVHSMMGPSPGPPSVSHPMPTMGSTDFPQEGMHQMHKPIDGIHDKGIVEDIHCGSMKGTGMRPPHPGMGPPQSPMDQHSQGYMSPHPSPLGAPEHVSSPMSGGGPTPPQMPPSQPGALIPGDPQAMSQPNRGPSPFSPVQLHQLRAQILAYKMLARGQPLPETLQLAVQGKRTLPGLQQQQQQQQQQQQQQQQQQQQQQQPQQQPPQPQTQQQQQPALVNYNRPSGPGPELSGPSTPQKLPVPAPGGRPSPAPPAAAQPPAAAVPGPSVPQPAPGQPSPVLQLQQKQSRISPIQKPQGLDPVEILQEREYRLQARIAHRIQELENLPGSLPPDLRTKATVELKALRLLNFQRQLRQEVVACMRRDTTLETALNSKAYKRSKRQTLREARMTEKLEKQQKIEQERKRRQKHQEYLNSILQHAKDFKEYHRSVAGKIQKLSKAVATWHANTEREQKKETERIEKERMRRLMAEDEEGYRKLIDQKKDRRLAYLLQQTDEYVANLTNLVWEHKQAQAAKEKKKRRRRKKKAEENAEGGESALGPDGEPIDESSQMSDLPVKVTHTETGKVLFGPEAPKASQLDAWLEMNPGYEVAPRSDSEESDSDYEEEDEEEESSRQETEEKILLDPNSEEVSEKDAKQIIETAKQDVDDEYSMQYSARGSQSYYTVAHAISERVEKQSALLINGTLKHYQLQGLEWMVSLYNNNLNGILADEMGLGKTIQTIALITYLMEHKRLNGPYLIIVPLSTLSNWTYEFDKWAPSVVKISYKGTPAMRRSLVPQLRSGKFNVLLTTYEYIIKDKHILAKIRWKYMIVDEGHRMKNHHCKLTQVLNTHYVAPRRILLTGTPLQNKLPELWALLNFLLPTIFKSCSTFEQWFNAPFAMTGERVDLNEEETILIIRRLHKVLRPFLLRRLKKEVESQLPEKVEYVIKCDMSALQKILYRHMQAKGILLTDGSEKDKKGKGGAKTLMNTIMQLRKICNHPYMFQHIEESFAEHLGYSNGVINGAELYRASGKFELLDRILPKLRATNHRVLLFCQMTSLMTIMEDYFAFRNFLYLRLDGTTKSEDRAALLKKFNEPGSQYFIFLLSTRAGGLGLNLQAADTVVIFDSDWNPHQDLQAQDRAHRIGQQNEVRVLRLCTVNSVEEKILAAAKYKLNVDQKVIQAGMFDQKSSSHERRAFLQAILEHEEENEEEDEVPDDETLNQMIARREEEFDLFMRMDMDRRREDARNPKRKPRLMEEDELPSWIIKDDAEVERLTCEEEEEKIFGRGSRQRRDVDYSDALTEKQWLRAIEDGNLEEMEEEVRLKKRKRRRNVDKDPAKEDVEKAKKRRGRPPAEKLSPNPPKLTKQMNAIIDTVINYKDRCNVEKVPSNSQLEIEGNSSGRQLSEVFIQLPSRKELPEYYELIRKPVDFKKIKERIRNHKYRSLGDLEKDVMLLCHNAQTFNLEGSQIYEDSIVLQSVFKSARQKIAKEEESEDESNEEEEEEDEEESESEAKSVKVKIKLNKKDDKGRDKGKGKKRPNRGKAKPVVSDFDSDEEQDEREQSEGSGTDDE
smiles,measurement,setting,value
Cc1ncsc1-c1ccc([C@H](CN2CCOCC2)NC(=O)[C@@H]2C[C@@H](O)CN2C(=O)[C@@H](n2cc([C@H]3CC[C@H](CN4CCC(c5ccc6c(c5)-n5c(nc(=O)c7c(Cl)cccc75)C65CCCCC5)CC4)CC3)nn2)C(C)(C)C)cc1,Cp,[1],Below_limit_of_detection
same,clearance,[2],9.2 mL/min/kg
same,concentration at 24 h,[3],139 ng/mL
same,inhibition in vivo at 10 mg/kg,NCI-H838 [4],87%
same,GI50,[5],9.5 nM
same,half-life,[6],> 1 h
same,half-life,[7],8.4 h
same,Imax,[8],80%
same,half-life,[9],> 1 h
same,concentration at 96 h,[10],268 ng/mL
same,Cmax,[11],2230 ng/mL
same,clearance,[12],22 mL/min/kg
same,GI50,[13],4.8 nM
same,concentration at 48 h,[14],15 ng/mL
same,concentration at 168 h,[15],169 ng/mL
same,Imax,SK-MEL-28 [16],55%
same,GI50,[17],2.2 nM
same,Imax,[18],85%
same,Imax,SK-MEL-5 [19],95%
same,GI50,SK-MEL-28 [20],> 10000 nM
same,Activity,NCI-H838 [21],inactive
same,Vd,[22],0.9 L/kg
same,AUC(0-t),[23],753 ng·h/mL
same,Imax,[24],86%
same,AUC(0-t),[25],1740 ng·h/mL
same,Activity,[26],Non-toxic
same,Imax,[27],71%
same,IC50,Cytochrome P450 3A4,> 100000 nM
same,Activity,[28],Non-toxic
same,Activity,NCI-H838 [29],inactive
same,concentration at 6 h,[30],608 ng/mL
same,GI50,SK-MEL-5 [31],1.5 nM
same,inhibition in vivo at 30 mg/kg,NCI-H838 [32],91%
same,half-life,[33],6.3 h
same,Cp,[34],Below_limit_of_detection
same,concentration at 48 h,[35],437 ng/mL
same,IC50,[36],42.2 nM
same,concentration at 48 h,[37],437 ng/mL
same,concentration at 24 h,[38],50 ng/mL
same,Imax,[39],65%
same,half-life,[40],> 2 h

# From ChEMBL document CHEMBL6096675 (J Med Chem, 2025)
